The values that follow come from patent publication US11945813B2, “5-substituted 4-amino-1H-benzo[c][1,2,6]thiadiazine 2,2-dioxides and formulations and uses thereof” (Firmenich Incorporated, priority 2018, dated 2024).

This test addresses T1, T1R2/T1R3 taste receptor (Homo sapiens, UniProt Q8TE23).
T1 sequence (Q8TE23 20-839): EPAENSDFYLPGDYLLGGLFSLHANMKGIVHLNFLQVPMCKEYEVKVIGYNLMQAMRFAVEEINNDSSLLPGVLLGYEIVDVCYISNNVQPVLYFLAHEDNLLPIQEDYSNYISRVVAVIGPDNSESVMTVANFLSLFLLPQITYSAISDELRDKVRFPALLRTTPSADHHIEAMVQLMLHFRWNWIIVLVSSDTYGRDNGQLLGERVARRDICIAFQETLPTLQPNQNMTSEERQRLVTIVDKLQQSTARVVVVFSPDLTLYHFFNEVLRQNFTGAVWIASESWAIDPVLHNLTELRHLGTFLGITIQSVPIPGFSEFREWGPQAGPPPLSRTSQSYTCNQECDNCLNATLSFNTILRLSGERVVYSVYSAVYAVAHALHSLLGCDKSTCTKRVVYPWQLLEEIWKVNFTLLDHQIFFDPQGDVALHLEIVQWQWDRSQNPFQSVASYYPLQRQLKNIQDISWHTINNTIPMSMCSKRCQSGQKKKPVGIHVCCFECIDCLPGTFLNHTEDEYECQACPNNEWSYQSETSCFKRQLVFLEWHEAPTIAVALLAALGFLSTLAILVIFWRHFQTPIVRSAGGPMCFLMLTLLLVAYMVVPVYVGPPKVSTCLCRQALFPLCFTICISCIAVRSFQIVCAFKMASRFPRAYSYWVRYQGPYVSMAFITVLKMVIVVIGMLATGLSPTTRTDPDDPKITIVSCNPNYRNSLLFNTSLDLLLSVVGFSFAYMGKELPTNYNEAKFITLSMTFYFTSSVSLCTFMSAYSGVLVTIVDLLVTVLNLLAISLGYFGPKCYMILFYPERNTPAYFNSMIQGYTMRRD
T1 sequence (Q7RTX0 21-852 partner): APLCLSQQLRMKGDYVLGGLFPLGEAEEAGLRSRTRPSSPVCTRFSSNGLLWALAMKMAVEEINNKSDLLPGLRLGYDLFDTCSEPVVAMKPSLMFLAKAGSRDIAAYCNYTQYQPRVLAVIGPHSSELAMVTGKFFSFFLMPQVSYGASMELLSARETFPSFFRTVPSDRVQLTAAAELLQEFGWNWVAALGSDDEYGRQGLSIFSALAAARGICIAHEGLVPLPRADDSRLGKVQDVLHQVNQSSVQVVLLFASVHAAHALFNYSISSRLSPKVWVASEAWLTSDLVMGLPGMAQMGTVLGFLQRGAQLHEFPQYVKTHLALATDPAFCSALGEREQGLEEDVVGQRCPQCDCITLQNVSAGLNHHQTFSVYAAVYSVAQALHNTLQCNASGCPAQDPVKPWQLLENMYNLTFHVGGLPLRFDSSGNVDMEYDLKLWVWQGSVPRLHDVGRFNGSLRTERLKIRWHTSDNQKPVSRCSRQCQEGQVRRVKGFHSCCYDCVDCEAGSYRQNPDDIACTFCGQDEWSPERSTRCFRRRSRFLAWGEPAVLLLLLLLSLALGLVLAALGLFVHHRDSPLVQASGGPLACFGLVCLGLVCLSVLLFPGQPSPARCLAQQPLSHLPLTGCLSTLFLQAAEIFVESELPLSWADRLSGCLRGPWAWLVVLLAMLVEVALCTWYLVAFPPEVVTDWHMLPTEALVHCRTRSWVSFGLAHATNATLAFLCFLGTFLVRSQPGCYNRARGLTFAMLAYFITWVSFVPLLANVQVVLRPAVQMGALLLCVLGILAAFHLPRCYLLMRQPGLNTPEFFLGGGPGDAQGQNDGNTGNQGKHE
Briefly: Receptor-based assay: sweetener EC50 alone and with test compound (enhancement ratio). Particulars: for Sucralose Enhancement EC50 Ratio: sweetener sucralose; for Sucrose Enhancement EC50 Ratio: sweetener sucrose; for Fructose Enhancement EC50 Ratio: sweetener fructose. It counts as cell-based. The protocol:
Potencies (EC50 values) for the sweeteners sucrose, sucralose, and fructose were measured against the T1R2/T1R3 taste receptor. EC50 was determined using the sweetener alone and in the presence of 3 μM, 10 μM, or 50 μM of test compound. EC50 ratios were calculated by the ratio of potency with and without the test compound. An “A” value indicates an enhancement ratio of greater than 20. A “B” value indicates an enhancement ratio from 10 to 20. A “C” value indicates an enhancement ratio greater than 1 and less than 10.

For `Cc1cnc(NC(C)(C)COc2cccc3c2C(N)=NS(=O)(=O)N3)nc1` [Compound 100, 4-amino-5-(2-methyl-2-((5-methylpyrimidin-2-yl)amino)propoxy)-1H-benzo[c][1,2,6]thiadiazine 2,2-dioxide], the “Sucralose Enhancement EC50 Ratio” value was “A (An “A” value indicates an enhancement ratio of greater than 20)” (10 μM test compound) and “A (An “A” value indicates an enhancement ratio of greater than 20)” (50 μM test compound). The “Sucrose Enhancement EC50 Ratio” value runs as follows: (3 μM test compound) “C (A “C” value indicates an enhancement ratio greater than 1 and less than 10)”; (10 μM test compound) “C (A “C” value indicates an enhancement ratio greater than 1 and less than 10)”; (50 μM test compound) “C (A “C” value indicates an enhancement ratio greater than 1 and less than 10)”.
On to `CC(C)(COc1cccc2c1C(N)=NS(=O)(=O)N2)Nc1ccccn1` [Compound 101], for which, for the setting “10 μM test compound”, the “Fructose Enhancement EC50 Ratio” value is “C (A “C” value indicates an enhancement ratio greater than 1 and less than 10)”; the “Sucralose Enhancement EC50 Ratio” value is recorded as “A (An “A” value indicates an enhancement ratio of greater than 20)”; the “Sucrose Enhancement EC50 Ratio” value is “C (A “C” value indicates an enhancement ratio greater than 1 and less than 10)”. Under “50 μM test compound”, the “Sucralose Enhancement EC50 Ratio” value is listed as “A (An “A” value indicates an enhancement ratio of greater than 20)”; the “Sucrose Enhancement EC50 Ratio” value was “C (A “C” value indicates an enhancement ratio greater than 1 and less than 10)”. In addition, the “Sucrose Enhancement EC50 Ratio” value (3 μM test compound) was “C (A “C” value indicates an enhancement ratio greater than 1 and less than 10)”.
On to `CC(C)(COc1cccc2c1C(N)=NS(=O)(=O)N2)Nc1ncccn1` [Compound 102], for which, where the note is “10 μM test compound”, the “Fructose Enhancement EC50 Ratio” value was “C (A “C” value indicates an enhancement ratio greater than 1 and less than 10)”; the “Sucralose Enhancement EC50 Ratio” value was “A (An “A” value indicates an enhancement ratio of greater than 20)”; the “Sucrose Enhancement EC50 Ratio” value is “C (A “C” value indicates an enhancement ratio greater than 1 and less than 10)”. In addition, under “50 μM test compound”, the “Sucralose Enhancement EC50 Ratio” value is “A (An “A” value indicates an enhancement ratio of greater than 20)” and the “Sucrose Enhancement EC50 Ratio” value was “B (A “B” value indicates an enhancement ratio from 10 to 20)”.
Turning to `Cc1cc(C)nc(NC(C)(C)COc2cccc3c2C(N)=NS(=O)(=O)N3)n1` [Compound 103], for the setting “10 μM test compound”, the “Fructose Enhancement EC50 Ratio” value is “C (A “C” value indicates an enhancement ratio greater than 1 and less than 10)”; the “Sucralose Enhancement EC50 Ratio” value is “A (An “A” value indicates an enhancement ratio of greater than 20)”; the “Sucrose Enhancement EC50 Ratio” value was “C (A “C” value indicates an enhancement ratio greater than 1 and less than 10)”. For the same compound, under “50 μM test compound”, the “Fructose Enhancement EC50 Ratio” value is “C (A “C” value indicates an enhancement ratio greater than 1 and less than 10)”; the “Sucralose Enhancement EC50 Ratio” value is listed as “A (An “A” value indicates an enhancement ratio of greater than 20)”; the “Sucrose Enhancement EC50 Ratio” value is “C (A “C” value indicates an enhancement ratio greater than 1 and less than 10)”. For the same compound, the “Sucrose Enhancement EC50 Ratio” value (3 μM test compound) was “C (A “C” value indicates an enhancement ratio greater than 1 and less than 10)”.
For the compound `NC1=NS(=O)(=O)Nc2cccc(OC[C@H]3CCCN(c4ccccn4)C3)c21` [Compound 104], the “Fructose Enhancement EC50 Ratio” value (10 μM test compound) was “C (A “C” value indicates an enhancement ratio greater than 1 and less than 10)”. Moreover, the “Sucralose Enhancement EC50 Ratio” value runs as follows: (10 μM test compound) “A (An “A” value indicates an enhancement ratio of greater than 20)”; (50 μM test compound) “A (An “A” value indicates an enhancement ratio of greater than 20)”. For the same compound, the “Sucrose Enhancement EC50 Ratio” value is, setting by setting: (3 μM test compound) “C (A “C” value indicates an enhancement ratio greater than 1 and less than 10)”; (10 μM test compound) “C (A “C” value indicates an enhancement ratio greater than 1 and less than 10)”; (50 μM test compound) “C (A “C” value indicates an enhancement ratio greater than 1 and less than 10)”.
With `NC1=NS(=O)(=O)Nc2cccc(OC[C@H]3CCCN(c4ncccn4)C3)c21` [Compound 105], under “10 μM test compound”, the “Fructose Enhancement EC50 Ratio” value is “C (A “C” value indicates an enhancement ratio greater than 1 and less than 10)”; the “Sucralose Enhancement EC50 Ratio” value was “A (An “A” value indicates an enhancement ratio of greater than 20)”; the “Sucrose Enhancement EC50 Ratio” value was “C (A “C” value indicates an enhancement ratio greater than 1 and less than 10)”. For the same compound, for the setting “50 μM test compound”, the “Fructose Enhancement EC50 Ratio” value is “C (A “C” value indicates an enhancement ratio greater than 1 and less than 10)”; the “Sucralose Enhancement EC50 Ratio” value was “A (An “A” value indicates an enhancement ratio of greater than 20)”; the “Sucrose Enhancement EC50 Ratio” value was “C (A “C” value indicates an enhancement ratio greater than 1 and less than 10)”. Also, under “3 μM test compound”, the “Sucrose Enhancement EC50 Ratio” value is “C (A “C” value indicates an enhancement ratio greater than 1 and less than 10)”.
As to `CC(C)(COc1cccc2c1C(N)=NS(=O)(=O)N2)Nc1ccnc(Cl)n1` [Compound 201, 4-amino-5-(2-((2-chloropyrimidin-4-yl)amino)-2-methylpropoxy)-1H-benzo[c][1,2,6]thiadiazine 2,2-dioxide], for the setting “10 μM test compound”, the “Fructose Enhancement EC50 Ratio” value was “C (A “C” value indicates an enhancement ratio greater than 1 and less than 10)”; the “Sucrose Enhancement EC50 Ratio” value is “C (A “C” value indicates an enhancement ratio greater than 1 and less than 10)”. For the same compound, where the note is “50 μM test compound”, the “Sucralose Enhancement EC50 Ratio” value was “A (An “A” value indicates an enhancement ratio of greater than 20)”; the “Sucrose Enhancement EC50 Ratio” value is “C (A “C” value indicates an enhancement ratio greater than 1 and less than 10)”. For the same compound, where the note is “3 μM test compound”, the “Sucrose Enhancement EC50 Ratio” value is “C (A “C” value indicates an enhancement ratio greater than 1 and less than 10)”.
In the case of `CC(C)(COc1cccc2c1C(N)=NS(=O)(=O)N2)Nc1ccnc(-n2cccn2)n1` [Compound 202], the “Sucrose Enhancement EC50 Ratio” value (50 μM test compound) was “C (A “C” value indicates an enhancement ratio greater than 1 and less than 10)”.
With `CC(C)(COc1cccc2c1C(N)=NS(=O)(=O)N2)Nc1ccnc(N2CCCC2)n1` [Compound 204], the “Fructose Enhancement EC50 Ratio” value (50 μM test compound) was “C (A “C” value indicates an enhancement ratio greater than 1 and less than 10)”. Further, the “Sucralose Enhancement EC50 Ratio” value is “A (An “A” value indicates an enhancement ratio of greater than 20)” (10 μM test compound) and “A (An “A” value indicates an enhancement ratio of greater than 20)” (50 μM test compound). Moreover, the “Sucrose Enhancement EC50 Ratio” value reads like this: (3 μM test compound) “C (A “C” value indicates an enhancement ratio greater than 1 and less than 10)”; (10 μM test compound) “C (A “C” value indicates an enhancement ratio greater than 1 and less than 10)”; (50 μM test compound) “C (A “C” value indicates an enhancement ratio greater than 1 and less than 10)”.
For the compound `CC(C)(COc1cccc2c1C(N)=NS(=O)(=O)N2)Nc1ccnc(N2CCOCC2)n1` [Compound 205], where the note is “50 μM test compound”, the “Fructose Enhancement EC50 Ratio” value is “C (A “C” value indicates an enhancement ratio greater than 1 and less than 10)”; the “Sucralose Enhancement EC50 Ratio” value is “A (An “A” value indicates an enhancement ratio of greater than 20)”; the “Sucrose Enhancement EC50 Ratio” value was “C (A “C” value indicates an enhancement ratio greater than 1 and less than 10)”. In addition, for the setting “10 μM test compound”, the “Sucralose Enhancement EC50 Ratio” value is “B (A “B” value indicates an enhancement ratio from 10 to 20)”; the “Sucrose Enhancement EC50 Ratio” value is “C (A “C” value indicates an enhancement ratio greater than 1 and less than 10)”. Besides, the “Sucrose Enhancement EC50 Ratio” value (3 μM test compound) is “C (A “C” value indicates an enhancement ratio greater than 1 and less than 10)”.
